Data on eight compounds can be found in PubChem BioAssay (NCI).

Each structure is given as a SMILES string.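 Compound exposure: 48 hours, 5 concentrations, 96-well plates. Abbreviation: GI50, concentration required for 50% inhibition of growth. TGI: total growth inhibition.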

Test systems include 786-0 renal; BT-549 breast; HCT-15 colon; KM12 colon; MOLT-4 leukemia; OVCAR-5 ovarian; SF-268 CNS; SW-620 colon; T-47D breast; UACC-62 melanoma.
Common to all, as to experiment: NCI-60 cell line screen, 48 h

Regarding `Cn1cccc1-c1cc(-c2cccs2)nc(N)c1C#N`, the GI50 with 786-0 renal, in the assay with BT-549 breast, in the assay on HCT-15 colon, in the assay with KM12 colon, in the assay with MOLT-4 leukemia and in the assay with OVCAR-5 ovarian was above 100 µM throughout. Further, the GI50 with SF-268 CNS was above 100 µM; in the assay with SW-620 colon, above 100 µM; with T-47D breast, above 100 µM; in the assay on UACC-62 melanoma, 87 µM. The TGI in the assay on 786-0 renal, in the assay on BT-549 breast, in the assay on HCT-15 colon, with KM12 colon, in the assay on MOLT-4 leukemia and in the assay on OVCAR-5 ovarian was above 100 µM throughout. In addition, the TGI in the assay with SF-268 CNS, in the assay with SW-620 colon, in the assay with T-47D breast and with UACC-62 melanoma was above 100 µM throughout.
For the compound `O=c1cc(-c2ccccc2)[nH]c2ccccc12`, the GI50 was 2.81 µM in the assay on 786-0 renal; 0.481 µM in the assay with HCT-15 colon; 0.464 µM in the assay on KM12 colon; 0.703 µM in the assay with MOLT-4 leukemia; 3.18 µM in the assay with SF-268 CNS; 0.379 µM in the assay with SW-620 colon. Also, the GI50 in the assay with T-47D breast is 0.468 µM; in the assay with UACC-62 melanoma it was 0.519 µM. The TGI was above 100 µM with 786-0 renal; above 52.1 µM in the assay with BT-549 breast; above 100 µM in the assay with HCT-15 colon; above 100 µM in the assay on KM12 colon; above 100 µM in the assay with MOLT-4 leukemia; above 100 µM in the assay on OVCAR-5 ovarian. Moreover, the TGI in the assay on SF-268 CNS, in the assay on SW-620 colon, in the assay on T-47D breast and with UACC-62 melanoma was above 100 µM in each case.
Take `CC1OC(O[C@@H]2OC=C(C=O)[C@@]3(O)CC[C@H](C)[C@@H]23)C(O)C(O)C1O` (stereo partly drawn): the TGI with 786-0 renal, in the assay on BT-549 breast, in the assay with HCT-15 colon, in the assay on KM12 colon, in the assay with MOLT-4 leukemia and in the assay on OVCAR-5 ovarian was above 100 µM each time. The TGI in the assay with SF-268 CNS, in the assay with SW-620 colon, in the assay with T-47D breast and in the assay with UACC-62 melanoma was above 100 µM each time.
Consider `CCCCCCCCN=C(N)c1ccc(N2CCN(c3ccc(C(N)=NCCCCCCCC)cc3)CC2)cc1`, for which the GI50 is 1.67 µM in the assay with 786-0 renal; 1.41 µM in the assay with BT-549 breast; 1.79 µM in the assay on HCT-15 colon; 1.9 µM in the assay on KM12 colon; 0.724 µM in the assay on MOLT-4 leukemia; 3.27 µM with OVCAR-5 ovarian. Further, the GI50 is 1.85 µM in the assay with SF-268 CNS, 1.76 µM in the assay on SW-620 colon, 1.63 µM in the assay on T-47D breast and 1.92 µM in the assay on UACC-62 melanoma. Further, the TGI in the assay on 786-0 renal is 5.49 µM; in the assay on BT-549 breast it was 3.82 µM; in the assay on HCT-15 colon it was 7.2 µM; in the assay with KM12 colon, 8.81 µM; with MOLT-4 leukemia it was 3.4 µM; in the assay on OVCAR-5 ovarian it was 14.4 µM. Also, the TGI in the assay with SF-268 CNS amounted to 5.91 µM; in the assay on SW-620 colon, 16.8 µM; with T-47D breast, 13.5 µM; in the assay with UACC-62 melanoma, 8.44 µM.
As to `CC1(C)CC(=O)c2c(C(F)(F)F)nn(-c3ccc(C(N)=O)c(NC4CCC(OC(=O)CN)CC4)c3)c2C1` (stereo not drawn), the GI50 in the assay with 786-0 renal was 16.2 µM; in the assay with BT-549 breast, 5.24 µM; in the assay with HCT-15 colon, 0.12 µM; in the assay with KM12 colon it was 0.0434 µM; in the assay with MOLT-4 leukemia it was 0.0437 µM; in the assay with OVCAR-5 ovarian, 3.7 µM. For the same compound, the GI50 was 0.271 µM with SF-268 CNS, 0.038 µM in the assay on SW-620 colon, 0.0461 µM in the assay on T-47D breast and 0.0507 µM in the assay with UACC-62 melanoma. For the same compound, the TGI in the assay on 786-0 renal was above 100 µM; in the assay on BT-549 breast, 41.7 µM; with HCT-15 colon it was above 93.6 µM; in the assay on KM12 colon, above 100 µM; in the assay on MOLT-4 leukemia, 24.4 µM; in the assay on OVCAR-5 ovarian it was above 100 µM. Moreover, the TGI is above 100 µM with SF-268 CNS, above 100 µM in the assay with SW-620 colon, above 100 µM in the assay with T-47D breast and 14.5 µM in the assay on UACC-62 melanoma.
In the case of `CCOC(=O)c1c2c(n3ccccc13)C(=O)c1ccccc1C2=O`, the TGI in the assay on 786-0 renal, in the assay on BT-549 breast, in the assay on HCT-15 colon, in the assay on KM12 colon, in the assay on MOLT-4 leukemia and in the assay on OVCAR-5 ovarian was above 100 µM throughout. For the same compound, the TGI with SF-268 CNS, in the assay with SW-620 colon, in the assay with T-47D breast and in the assay on UACC-62 melanoma was above 100 µM throughout.
Regarding `Cc1ccc(-c2cn3ccnc3c(-c3ccc(Cl)cc3)n2)cc1`, the GI50 in the assay with 786-0 renal is 0.966 µM; in the assay with BT-549 breast, 2.3 µM; in the assay with HCT-15 colon, 1.23 µM; in the assay on KM12 colon it was 0.15 µM; in the assay with MOLT-4 leukemia, 0.0815 µM; with OVCAR-5 ovarian, 14.8 µM. In addition, the GI50 in the assay with SF-268 CNS is 0.0885 µM; in the assay on SW-620 colon, below 0.0217 µM; in the assay on T-47D breast, 8.12 µM; in the assay on UACC-62 melanoma it was 0.137 µM. The TGI in the assay on 786-0 renal was above 59.8 µM; in the assay with BT-549 breast it was 65.3 µM; with HCT-15 colon, above 35.6 µM; with KM12 colon, 16.6 µM; with MOLT-4 leukemia, above 100 µM; in the assay on OVCAR-5 ovarian, above 100 µM. Further, the TGI in the assay with SF-268 CNS is 11.7 µM; with SW-620 colon it was above 61.2 µM; in the assay with T-47D breast it was above 58.5 µM; in the assay on UACC-62 melanoma, 35.9 µM.
Take `Nc1nc2c(c3ncncc13)C(c1cccc(C(F)(F)F)c1)Cc1ncncc1-2` (stereo not drawn): the GI50 in the assay with 786-0 renal was 4.43 µM; in the assay with BT-549 breast it was 4.08 µM; with HCT-15 colon, 3.57 µM; in the assay with KM12 colon, 4.43 µM; in the assay with MOLT-4 leukemia, 4.78 µM; in the assay with OVCAR-5 ovarian it was 11.3 µM. Besides, the GI50 in the assay on SF-268 CNS is 5.94 µM; in the assay with SW-620 colon, 4.51 µM; in the assay with T-47D breast, 4.15 µM; with UACC-62 melanoma, 3.86 µM. The TGI in the assay on 786-0 renal was 27.4 µM; in the assay on BT-549 breast it was 21.5 µM; with HCT-15 colon, above 100 µM; with KM12 colon, 35.5 µM; in the assay on MOLT-4 leukemia, 34.9 µM; in the assay with OVCAR-5 ovarian, 31.4 µM. Moreover, the TGI in the assay on SF-268 CNS was 37.7 µM; with SW-620 colon it was above 100 µM; in the assay on T-47D breast, 82.9 µM; with UACC-62 melanoma, 17.6 µM.
